Experimental data published in patent US9090874B2, “Olfactory epithelial-derived stem cells and methods of use therefor” (University of Louisville Research Foundation, Inc., priority 2008, dated 2015).

Test system: neurosphere subcultures
Assay: Exposure of neurosphere subcultures to dibutyryl cAMP
Format: cell-based
Settings: media containing 2.5 mM dibutyryl cAMP

CCCC(=O)Nc1ncnc2c1ncn2[C@@H]1O[C@@H]2COP(=O)(O)O[C@H]2[C@H]1OC(=O)CCC [dibutyryl cAMP]
levels of α-internexin: increases | mitotic activity: drastically decreases
